From patent US12544356B2, “Combination of a chromene compound and a second active agent” (EUCLISES PHARMACEUTICALS, INC., priority 2016, dated 2026)

What was measured:
[1] = tested on: HT-29 xenograft murine colon carcinoma model; experiment: HT-29 xenograft tumor growth, Compound A01 with erlotinib (Example 1); format: in vivo, CB17SCID male mice
Method: HT-29 cells were cultured in medium for one week. Following digestion cells were centrifuged for 3-5 minutes at 800-1500 rpm. Cells were washed with PBS and centrifuged again under the same condition. Cells were then suspended in PBS to a final concentration of […]. 200 μL of the HT-29 cell suspension were subcutaneously injected into the mice left forelimb axillary (2.5×10^6 HT-29 cells per mouse).
(§1) 48 CB17SCID male mice were implanted with 2.5×10^6 HT29 cells. Growth of the tumor was calculated for each animal using a caliper and the equation: V=π×ab^2/6.
(§2) Mouse weight and tumor volume measurements were taken on days 0, 3, 6, 9, 12, 15, 18, 21, and 22 following randomization.

[2] = Body weight in HT-29 xenograft study (Example 1); format: in vivo, CB17SCID male mice
Method: as §1, §2

[3] = Intratumoral concentration of Compound A01 and erlotinib (Example 1); format: in vivo, CB17SCID male mice; details: for Intratumoral concentration of Compound A01 (mean ± SD): HT-29 tumor, day 24
Method: as §1, §2

[4] = tested on: CT26 xenograft murine colon carcinoma model; experiment: CT26 tumor rejection, COX-2 inhibitor with anti-PD1 antibody (Example 2); format: in vivo, female BALB/c mice; details: up to 50 days following inoculation, COX-2 inhibitor oral daily from day 0, anti-PD-1 200 μg/mouse i.p.
Method: CT26.WT cells were cultured under standard conditions. They were harvested with trypsin and washed with PBS. 10^5 cells were injected into the right flank of 6 week old female BALB/c mice in total volume of 100 μL. Tumor size was quantified as the mean of the longest diameter and its perpendicular.

[5] = tested on: immune cell infiltration into the tumors (CT26); experiment: Immune response to CT26 tumors: tumor-infiltrating and splenic immune cells (Example 3); format: in vivo, Female BALB/c mice; details: Day 16; compared to vehicle treated mice
Method: Female BALB/c mice were inoculated with 10^5 CT26 colorectal cancer cells as in Example 2. […] Anti-PD1 antibody was administered i.p. (200 μg/mouse) at days 9 and 14 post inoculation. Tumors were analyzed at day 16 (7 days after first anti-PD1 administration).

[6] = tested on: CT26 murine colon carcinoma cells; experiment: CT26 tumor growth, Compound A01 with anti-mPD-L1 (Example 4); format: in vivo, Female Envigo BALB/c (BALB/cAnNHsd) mice; details: for tumor growth (tumor volume): all doses 10 mg/kg, A01 oral daily, antibodies i.p.
Method: CT26 murine colon carcinoma cells were prepared as in Example 2. Female Envigo BALB/c (BALB/cAnNHsd) were inoculated with 5×10^5 CT26 cells suspended in PBS (200 μL) subcutaneously high in the axilla (just under the fore limb). […] The antibodies were administered via i.p. injection on days 3, 6, 9, 12, and 16 following inoculation. Compound A01 was given per oral daily. The mice were euthanized two hours following final dose on Day 16 and samples were prepared for testing.

PGE-2 = experiment: Tumoral PGE-2 in HT-29 tumors (Example 5); format: in vivo, CB17SCID mice; details: HT-29 tumor, day 24
Method: HT-29 cells were prepared and implanted by standard methods using the same procedure as Example 1.
42 CB17SCID mice were implanted with 2.5×10^6 HT-29 cells.
Mouse weight and tumor volume measurements were taken on days 0, 3, 6, 9, 12, 15, 18, 21, and 22 following randomization. After 22 days dosing, the blood from each animal was collected at 2 hours and 6 hours post dose.

[7] = tested on: CT26.WT murine colon carcinomas; experiment: CT26 tumor volume, Compound A01 vs celecoxib (Example 6); format: in vivo, Female Harlan Balb/c mice (BALB/cAnNHsd)
Method: CT26 murine colon carcinoma cells were prepared as in Example 2. Female Harlan Balb/c mice (BALB/cAnNHsd) were inoculated with 5×10^5 CT26 cells suspended in PBS (200 μL) subcutaneously high in the axilla (just under the fore limb). All mice were sorted into study groups based on caliper measurement estimation of tumor burden on Day 8 when the mean tumor burden for all animals was approximately 79 mm^3 (range of group means, 75-83 mm^3).

## [2H]C([2H])([2H])c1cc(Br)cc2c1O[C@H](C(F)(F)F)C(C(=O)O)=C2 [Compound A01, (S)-6-bromo-8-trideuteromethyl-2-(trifluoromethyl)-2H-chromene-3-carboxylic acid]
[1]; 10 mg/kg Compound A01 alone
  suppression of tumor growth compared to vehicle: 51%
[1]; Day 0, A01 1 mg/kg oral daily
  Tumor Volume: 71.8 mm^3
[1]; Day 0, A01 10 mg/kg oral daily
  Tumor Volume: 70.1 mm^3
[1]; Day 3, A01 1 mg/kg oral daily
  Tumor Volume: 143.8 mm^3
[1]; Day 3, A01 10 mg/kg oral daily
  Tumor Volume: 145.2 mm^3
[1]; Day 6, A01 1 mg/kg oral daily
  Tumor Volume: 194.2 mm^3
[1]; Day 6, A01 10 mg/kg oral daily
  Tumor Volume: 186.9 mm^3
[1]; Day 9, A01 1 mg/kg oral daily
  Tumor Volume: 301.1 mm^3
[1]; Day 9, A01 10 mg/kg oral daily
  Tumor Volume: 235.1 mm^3
[1]; Day 12, A01 1 mg/kg oral daily
  Tumor Volume: 344.8 mm^3
[1]; Day 12, A01 10 mg/kg oral daily
  Tumor Volume: 292.1 mm^3
[1]; Day 15, A01 1 mg/kg oral daily
  Tumor Volume: 459.4 mm^3
[1]; Day 15, A01 10 mg/kg oral daily
  Tumor Volume: 309.7 mm^3
[1]; Day 18, A01 1 mg/kg oral daily
  Tumor Volume: 820.6 mm^3
[1]; Day 18, A01 10 mg/kg oral daily
  Tumor Volume: 497.5 mm^3
[1]; Day 21, A01 1 mg/kg oral daily
  Tumor Volume: 899.0 mm^3
[1]; Day 21, A01 10 mg/kg oral daily
  Tumor Volume: 592.1 mm^3
[1]; Day 22, A01 1 mg/kg oral daily
  Tumor Volume: 921.1 mm^3
[1]; Day 22, A01 10 mg/kg oral daily
  Tumor Volume: 612.1 mm^3
[1]; HT-29 xenograft, compared to vehicle and to each therapy alone
  slowing of tumor growth, comparison of therapies: superior to 50 mg/kg erlotinib
[2]; Day 0, A01 1 mg/kg oral daily
  Body weight: 23.4 g
[2]; Day 0, A01 10 mg/kg oral daily
  Body weight: 23.5 g
[2]; Day 3, A01 1 mg/kg oral daily
  Body weight: 22.4 g
[2]; Day 6, A01 1 mg/kg oral daily
  Body weight: 21.6 g
[2]; Day 6, A01 10 mg/kg oral daily
  Body weight: 22.0 g
[2]; Day 15, A01 1 mg/kg oral daily
  Body weight: 20.0 g
[2]; Day 18, A01 1 mg/kg oral daily
  Body weight: 19.9 g
[2]; Day 21, A01 1 mg/kg oral daily
  Body weight: 19.9 g
[2]; Day 22, A01 1 mg/kg oral daily
  Body weight: 20.0 g
[3]; A01 1 mg/kg
  Intratumoral concentration of Compound A01 (mean ± SD): 1478.5 ± 652.1 µg/g
[3]; A01 10 mg/kg
  Intratumoral concentration of Compound A01 (mean ± SD): 9720 ± 2758.7 µg/g
[3]; with erlotinib vs Compound A01 in the absence of erlotinib
  increase in intratumor level of Compound A01 on addition of erlotinib: 1.5 fold
[4]
  tumor rejection / tumor growth: did not prevent tumor growth
[5]
  CD45+ (leukocyte), CD3+, CD8+, CD8+IFNγ+, CD4+IFNγ+, CD8+TNFα+ and CD4+TNFα+ cell infiltration into the tumors: increase
[6]; CT26, doses 10 mg/kg
  tumor growth compared to vehicle and isotype controls: slowed
[6]; Day 3
  tumor growth (tumor volume): 0 mm^3
[6]; Day 4
  tumor growth (tumor volume): 0 mm^3
[6]; Day 6
  tumor growth (tumor volume): 8 mm^3
[6]; Day 9
  tumor growth (tumor volume): 97 mm^3
[6]; Day 11
  tumor growth (tumor volume): 242 mm^3
[6]; Day 13
  tumor growth (tumor volume): 442 mm^3
[6]; Day 16
  tumor growth (tumor volume): 759 mm^3
PGE-2; 0.1 mg/kg
  Mean PGE-2 (tumoral): 203.9 ± 157.9 ng/g
PGE-2; 0.3 mg/kg
  Mean PGE-2 (tumoral): 237.3 ± 119.8 ng/g
PGE-2; 1 mg/kg
  Mean PGE-2 (tumoral): 90.7 ± 105.1 ng/g
PGE-2; 3 mg/kg
  Mean PGE-2 (tumoral): 94.3 ± 78.4 ng/g
PGE-2; 10 mg/kg
  Mean PGE-2 (tumoral): 45.5 ± 73.4 ng/g
[7]; Day 8, 0.3 mg/kg
  CT26 Tumor Volume: 80 ± 6 mm^3
[7]; Day 8, 1 mg/kg
  CT26 Tumor Volume: 78 ± 5 mm^3
[7]; Day 8, 3 mg/kg
  CT26 Tumor Volume: 83 ± 3 mm^3
[7]; Day 8, 10 mg/kg
  CT26 Tumor Volume: 79 ± 6 mm^3
[7]; Day 8, 30 mg/kg
  CT26 Tumor Volume: 78 ± 5 mm^3
[7]; Day 10, 0.3 mg/kg
  CT26 Tumor Volume: 139 ± 15 mm^3
[7]; Day 10, 1 mg/kg
  CT26 Tumor Volume: 118 ± 17 mm^3
[7]; Day 10, 3 mg/kg
  CT26 Tumor Volume: 127 ± 11 mm^3
[7]; Day 10, 10 mg/kg
  CT26 Tumor Volume: 121 ± 14 mm^3
[7]; Day 10, 30 mg/kg
  CT26 Tumor Volume: 119 ± 8 mm^3
[7]; Day 13, 0.3 mg/kg
  CT26 Tumor Volume: 460 ± 73 mm^3
[7]; Day 13, 1 mg/kg
  CT26 Tumor Volume: 286 ± 48 mm^3
[7]; Day 13, 3 mg/kg
  CT26 Tumor Volume: 314 ± 49 mm^3
[7]; Day 13, 10 mg/kg
  CT26 Tumor Volume: 257 ± 35 mm^3
[7]; Day 13, 30 mg/kg
  CT26 Tumor Volume: 309 ± 34 mm^3
[7]; Day 15, 0.3 mg/kg
  CT26 Tumor Volume: 694 ± 116 mm^3
[7]; Day 15, 1 mg/kg
  CT26 Tumor Volume: 433 ± 67 mm^3
[7]; Day 15, 3 mg/kg
  CT26 Tumor Volume: 560 ± 79 mm^3
[7]; Day 15, 10 mg/kg
  CT26 Tumor Volume: 590 ± 109 mm^3
[7]; Day 15, 30 mg/kg
  CT26 Tumor Volume: 563 ± 89 mm^3
[7]; Day 17, 0.3 mg/kg
  CT26 Tumor Volume: 1123 ± 198 mm^3
[7]; Day 17, 1 mg/kg
  CT26 Tumor Volume: 689 ± 114 mm^3
[7]; Day 17, 3 mg/kg
  CT26 Tumor Volume: 834 ± 114 mm^3
[7]; Day 17, 10 mg/kg
  CT26 Tumor Volume: 758 ± 130 mm^3
[7]; Day 17, 30 mg/kg
  CT26 Tumor Volume: 897 ± 101 mm^3
